Measured values taken from article PMC10939250 (PLOS Biology, 2024).
Residues, ends and D or L forms follow the SMILES beside them.

Assays:
[1] = mouse, in vivo

CC[C@H](C)[C@H](NC(=O)[C@H](CC(C)C)NC(=O)[C@@H](NC(=O)CNC(=O)[C@@H](NC(=O)[C@H](CC(=O)O)NC(=O)[C@H](CC(=O)O)NC(=O)[C@H](CO)NC(=O)[C@@H](NC(=O)[C@H](Cc1ccccc1)NC(=O)[C@H](CO)NC(=O)[C@H](Cc1ccc(O)cc1)NC(=O)[C@H](CCSC)NC(=O)[C@H](CCC(N)=O)NC(=O)[C@@H]1CCCN1C(=O)[C@@H]1CCCN1C(=O)[C@H](CCCNC(=N)N)NC(=O)[C@H](CCCNC(=N)N)NC(=O)[C@H](CCCNC(=N)N)NC(=O)[C@H](CCC(N)=O)NC(=O)[C@H](CCCNC(=N)N)NC(=O)[C@H](CCCNC(=N)N)NC(=O)[C@H](CCCCN)NC(=O)[C@H](CCCCN)NC(=O)[C@H](CCCNC(=N)N)NC(=O)CN)C(C)C)[C@@H](C)O)[C@@H](C)O)C(=O)N[C@H](C(=O)N[C@@H](CC(N)=O)C(=O)N[C@@H](CO)C(=O)N[C@H](C(=O)N[C@@H](CC(C)C)C(=O)O)C(C)C)C(C)C [iPep-SARS2-E] (H-GRKKRRQRRRPPQMYSFVSDDTGTLIVNSVL-OH)
Cellular toxicity (healthy, apoptotic, dead/necrotic cells) (Jurkat cells): does not cause cellular toxicity
Body weight and inflammation markers Cxcl12 and C5a [1]: did not find any significant differences
IC50 (SARS-CoV-2 WA1 virus): ~400 nM
